Patent US20180007899A1, “HERBICIDAL COMPOSITIONS COMPRISING OXYFLUORFEN AND HALOXYFOP” (Dow AgroSciences LLC, priority 2012, published 2018)

Key:
Experiment in all cases: Post-emergence field trial in onion, visual weed control
Format in all cases: in vivo
[1] = test system: hairy beggarticks (Bidens pilosa), BIDPI
Method: (§1) Multiple post-emergence field trials were conducted under field conditions in Colombia, Peru and Ecuador. Trial sites were located in commercially grown fields of onion (Allium spp) using standard herbicide small plot research methodology. Post-emergence trial plot size varied from 0.4 to 2 meter (m)×5 to 25 m (width×length) with 4 replicates per treatment. The onion crop was grown using normal cultural practices for fertilization, seeding, watering and maintenance to ensure good growth of the crop and the weeds.
(§2) All treatments in the post-emergence field trials were applied using a backpack compressed carbon dioxide (CO2) sprayer with flat fan nozzles calibrated to apply 400 liters per hectare (L/ha) spray volume at approximately 35 pounds per square inch (psi) nozzle pressure. Commercially available products of oxyfluorfen (GOAL® 480SC 480 grams active ingredient per liter (g ai/L) and haloxyfop-methyl (VERDICT R® 42 g ai/L) were mixed in water at appropriate formulated product rates to achieve the desired rates based on a unit area of application (hectare). Treatments were rated at 7 to 31 days after application (DAA) as compared to the untreated control plants. Visual weed control was scored on a scale of 0 to 100 percent where 0 corresponds to no injury and 100 corresponds to complete kill.
(§3) All treatment results, both for the single product and mixtures, are an average of 4 replicates. The trial sites had naturally occurring populations of weeds. The weed spectrum included, but was not limited to, AMBEL, BIDPI, BRSRA, GASPA, ELEIN, LOLTE, POANN, and SETVE.
(§4) Colby's equation was used to determine the herbicidal effects expected from the mixtures (Colby, S. R. Calculation of the synergistic and antagonistic response of herbicide combinations. Weeds 1967, 15, 20-22.).
(§5) The following equation was used to calculate the expected activity of mixtures containing two active ingredients, A and B:
(§6) A=observed efficacy of active ingredient A at the same concentration as used in the mixture.
(§7) B=observed efficacy of active ingredient B at the same concentration as used in the mixture.

[2] = test system: smallflower galinsoga (Galinsoga parviflora), GASPA; details: 15 days after application
Method: as §1, §2, §3, §4, §5, §6, §7

[3] = test system: common ragweed (Ambrosia artemisiifolia L.), AMBEL; details: 15 days after application
Method: as §1, §2, §3, §4, §5, §6, §7

[4] = test system: annual bluegrass (Poa annua L.), POAAN; details: 15 days after application
Method: as §1, §2, §3, §4, §5, §6, §7

[5] = test system: bristly foxtail (Setaria verticillata), SETVE; details: 7 days after application
Method: as §1, §2, §3, §4, §5, §6, §7

[6] = test system: birdsrape mustard (Brassica rapa), BRSRA
Method: as §1, §2, §3, §4, §5, §6, §7

[7] = test system: poison ryegrass (Lolium temulentum), LOLTE; details: 15 days after application
Method: as §1, §2, §3, §4, §5, §6, §7

[8] = test system: goosegrass (Eleusine indica), ELEIN; details: 7 days after application
Method: as §1, §2, §3, §4, §5, §6, §7

[9] = 16 days after application, oxyfluorfen 0, haloxyfop-methyl 42 g ai/ha, foliar
[10] = 31 days after application, oxyfluorfen 0, haloxyfop-methyl 42 g ai/ha, foliar
[11] = oxyfluorfen 0, haloxyfop-methyl 42 g ai/ha, foliar
[12] = 16 days after application, oxyfluorfen 120 g ai/ha, haloxyfop-methyl 0, foliar
[13] = 16 days after application, oxyfluorfen 240 g ai/ha, haloxyfop-methyl 0, foliar
[14] = 16 days after application, oxyfluorfen 360 g ai/ha, haloxyfop-methyl 0, foliar
[15] = 31 days after application, oxyfluorfen 120 g ai/ha, haloxyfop-methyl 0, foliar
[16] = 31 days after application, oxyfluorfen 240 g ai/ha, haloxyfop-methyl 0, foliar
[17] = 31 days after application, oxyfluorfen 360 g ai/ha, haloxyfop-methyl 0, foliar
[18] = oxyfluorfen 120 g ai/ha, haloxyfop-methyl 0, foliar
[19] = oxyfluorfen 240 g ai/ha, haloxyfop-methyl 0, foliar
[20] = oxyfluorfen 360 g ai/ha, haloxyfop-methyl 0, foliar

COC(=O)C(C)Oc1ccc(Oc2ncc(C(F)(F)F)cc2Cl)cc1 (stereo not drawn) [Haloxyfop-methyl]
Visual Control (%) Obs [1, 9]: 0%
Visual Control (%) Obs [1, 10]: 0%
Visual Control (%) Obs [2, 11]: 6%
Visual Control (%) Obs [3, 11]: 6%
Visual Control (%) Obs [4, 11]: 5%
Visual Control (%) Obs [5, 11]: 77%
Visual Control (%) Obs [6, 9]: 0%
Visual Control (%) Obs [6, 10]: 0%
Visual Control (%) Obs [7, 11]: 4%
Visual Control (%) Obs [8, 11]: 6%

CCOc1cc(Oc2ccc(C(F)(F)F)cc2Cl)ccc1[N+](=O)[O-] [Oxyfluorfen, 2-chloro-1-(3-ethoxy-4-nitrophenoxy)-4-(trifluoromethyl)benzene]
Visual Control (%) Obs [1, 12]: 49%
Visual Control (%) Obs [1, 13]: 56%
Visual Control (%) Obs [1, 14]: 69%
Visual Control (%) Obs [1, 15]: 54%
Visual Control (%) Obs [1, 16]: 61%
Visual Control (%) Obs [1, 17]: 69%
Visual Control (%) Obs [2, 18]: 49%
Visual Control (%) Obs [2, 19]: 47%
Visual Control (%) Obs [2, 20]: 45%
Visual Control (%) Obs [3, 18]: 21%
Visual Control (%) Obs [3, 19]: 22%
Visual Control (%) Obs [3, 20]: 22%
Visual Control (%) Obs [4, 18]: 45%
Visual Control (%) Obs [4, 19]: 45%
Visual Control (%) Obs [4, 20]: 47%
Visual Control (%) Obs [5, 20]: 70%
Visual Control (%) Obs [6, 12]: 70%
Visual Control (%) Obs [6, 13]: 74%
Visual Control (%) Obs [6, 14]: 85%
Visual Control (%) Obs [6, 15]: 74%
Visual Control (%) Obs [6, 16]: 79%
Visual Control (%) Obs [6, 17]: 86%
Visual Control (%) Obs [7, 18]: 21%
Visual Control (%) Obs [7, 19]: 22%
Visual Control (%) Obs [7, 20]: 22%
Visual Control (%) Obs [8, 20]: 47%
